According to paper PMC6199309, “A therapeutic approach to pantothenate kinase associated neurodegeneration” (Nature Communications, 2018):
Values after ≈ are worked out from the molar mass of the structure shown. “Also recorded” adds a separate entry of the source.

Key:
[1] = target: T1, ABL1(F317L)-nonphosphorylated (Homo sapiens, UniProt P00519, F317L); test: KINOMEscan; assay type: binding; conditions: read-out: %Ctrl @ 10000nM
T1 construct: purchased DiscoverX KINOMEscan

ACVR1 = target: T2, ACVR1 (Homo sapiens, UniProt Q04771); test: KINOMEscan; assay type: binding; conditions: read-out: %Ctrl @ 10000nM
T2 construct: purchased DiscoverX KINOMEscan

ACVRL1 = target: T3, ACVRL1 (Homo sapiens, UniProt P37023); test: KINOMEscan; assay type: binding; conditions: read-out: %Ctrl @ 10000nM
T3 construct: purchased DiscoverX KINOMEscan

AMPK-alpha1 = target: T4, AMPK-alpha1 (Homo sapiens, UniProt Q13131); test: KINOMEscan; assay type: binding; conditions: read-out: %Ctrl @ 10000nM
T4 construct: purchased DiscoverX KINOMEscan

BMPR1A = target: T5, BMPR1A (Homo sapiens, UniProt P36894); test: KINOMEscan; assay type: binding; conditions: read-out: %Ctrl @ 10000nM
T5 construct: purchased DiscoverX KINOMEscan

BTK = target: T6, BTK (Homo sapiens, UniProt Q06187); test: KINOMEscan; assay type: binding; conditions: read-out: %Ctrl @ 10000nM
T6 construct: purchased DiscoverX KINOMEscan

CDC2L2 = target: T7, CDC2L2 (Homo sapiens, UniProt Q9UQ88); test: KINOMEscan; assay type: binding; conditions: read-out: %Ctrl @ 10000nM
T7 construct: purchased DiscoverX KINOMEscan
T7 sequence (Q9UQ88 whole entry): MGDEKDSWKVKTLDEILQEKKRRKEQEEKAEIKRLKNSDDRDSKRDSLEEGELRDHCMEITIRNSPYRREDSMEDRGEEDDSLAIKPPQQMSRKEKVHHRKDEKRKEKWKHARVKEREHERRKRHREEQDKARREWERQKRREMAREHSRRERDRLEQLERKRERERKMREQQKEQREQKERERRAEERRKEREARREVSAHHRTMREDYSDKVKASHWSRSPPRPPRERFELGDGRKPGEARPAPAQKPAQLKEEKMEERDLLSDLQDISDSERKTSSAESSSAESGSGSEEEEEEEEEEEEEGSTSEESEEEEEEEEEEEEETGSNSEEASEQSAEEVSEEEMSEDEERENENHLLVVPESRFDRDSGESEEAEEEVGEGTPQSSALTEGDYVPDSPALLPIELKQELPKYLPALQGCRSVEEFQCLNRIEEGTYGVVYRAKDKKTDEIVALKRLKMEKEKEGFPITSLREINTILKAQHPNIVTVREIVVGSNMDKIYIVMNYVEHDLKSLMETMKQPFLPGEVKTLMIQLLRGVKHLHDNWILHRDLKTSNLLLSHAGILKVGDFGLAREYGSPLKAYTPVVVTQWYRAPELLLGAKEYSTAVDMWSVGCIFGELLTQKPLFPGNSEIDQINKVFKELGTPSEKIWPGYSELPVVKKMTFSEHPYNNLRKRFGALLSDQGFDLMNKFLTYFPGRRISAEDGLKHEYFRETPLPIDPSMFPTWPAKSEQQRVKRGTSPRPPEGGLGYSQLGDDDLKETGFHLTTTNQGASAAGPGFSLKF

CDK11 = target: T8, CDK11 (Homo sapiens, UniProt Q9BWU1); test: KINOMEscan; assay type: binding; conditions: read-out: %Ctrl @ 10000nM
T8 construct: purchased DiscoverX KINOMEscan

CDK9 = target: T9, CDK9 (Homo sapiens, UniProt P50750); test: KINOMEscan; assay type: binding; conditions: read-out: %Ctrl @ 10000nM
T9 construct: purchased DiscoverX KINOMEscan

CSNK1G1 = target: T10, CSNK1G1 (Homo sapiens, UniProt Q9HCP0); test: KINOMEscan; assay type: binding; conditions: read-out: %Ctrl @ 10000nM
T10 construct: purchased DiscoverX KINOMEscan

DAPK3 = target: T11, DAPK3 (Homo sapiens, UniProt O43293); test: KINOMEscan; assay type: binding; conditions: read-out: %Ctrl @ 10000nM
T11 construct: purchased DiscoverX KINOMEscan

EIF2AK1 = target: T12, EIF2AK1 (Homo sapiens, UniProt Q9BQI3); test: KINOMEscan; assay type: binding; conditions: read-out: %Ctrl @ 10000nM
T12 construct: purchased DiscoverX KINOMEscan

FLT3(N841I) = target: T13, FLT3(N841I) (Homo sapiens, UniProt P36888, N841I); test: KINOMEscan; assay type: binding; conditions: read-out: %Ctrl @ 10000nM
T13 construct: purchased DiscoverX KINOMEscan

GRK4 = target: T14, GRK4 (Homo sapiens, UniProt P32298); test: KINOMEscan; assay type: binding; conditions: read-out: %Ctrl @ 10000nM
T14 construct: purchased DiscoverX KINOMEscan

HIPK2 = target: T15, HIPK2 (Homo sapiens, UniProt Q9H2X6); test: KINOMEscan; assay type: binding; conditions: read-out: %Ctrl @ 10000nM
T15 construct: purchased DiscoverX KINOMEscan
T15 sequence (Q9H2X6 whole entry): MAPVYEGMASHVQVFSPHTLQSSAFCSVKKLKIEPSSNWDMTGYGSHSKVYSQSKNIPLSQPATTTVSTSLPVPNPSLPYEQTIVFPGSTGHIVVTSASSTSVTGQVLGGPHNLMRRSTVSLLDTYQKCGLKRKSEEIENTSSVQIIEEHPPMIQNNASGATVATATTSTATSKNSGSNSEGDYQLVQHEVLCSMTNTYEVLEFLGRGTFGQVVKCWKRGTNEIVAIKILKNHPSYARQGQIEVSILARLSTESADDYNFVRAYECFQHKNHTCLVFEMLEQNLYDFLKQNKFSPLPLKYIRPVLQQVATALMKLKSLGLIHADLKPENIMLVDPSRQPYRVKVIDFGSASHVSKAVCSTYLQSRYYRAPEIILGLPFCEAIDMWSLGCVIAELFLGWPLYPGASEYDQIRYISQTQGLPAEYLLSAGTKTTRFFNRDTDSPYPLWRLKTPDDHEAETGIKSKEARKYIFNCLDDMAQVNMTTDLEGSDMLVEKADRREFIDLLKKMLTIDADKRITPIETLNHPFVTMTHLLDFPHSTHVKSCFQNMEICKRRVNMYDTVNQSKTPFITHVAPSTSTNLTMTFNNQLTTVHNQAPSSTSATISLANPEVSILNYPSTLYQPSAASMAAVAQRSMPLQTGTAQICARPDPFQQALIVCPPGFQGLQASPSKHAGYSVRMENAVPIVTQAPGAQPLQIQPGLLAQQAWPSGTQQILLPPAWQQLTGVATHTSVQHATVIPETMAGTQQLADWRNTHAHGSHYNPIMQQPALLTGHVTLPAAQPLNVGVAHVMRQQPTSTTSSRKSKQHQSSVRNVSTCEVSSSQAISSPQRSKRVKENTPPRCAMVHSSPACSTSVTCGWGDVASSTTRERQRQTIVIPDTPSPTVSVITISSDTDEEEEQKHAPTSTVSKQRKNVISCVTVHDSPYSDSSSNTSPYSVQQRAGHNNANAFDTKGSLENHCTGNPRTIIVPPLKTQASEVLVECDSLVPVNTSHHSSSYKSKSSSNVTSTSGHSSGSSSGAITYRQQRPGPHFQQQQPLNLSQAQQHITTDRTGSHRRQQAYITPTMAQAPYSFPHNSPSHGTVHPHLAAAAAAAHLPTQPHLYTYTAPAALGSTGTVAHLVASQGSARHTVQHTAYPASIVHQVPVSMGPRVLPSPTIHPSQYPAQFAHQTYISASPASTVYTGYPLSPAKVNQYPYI

HIPK4 = target: T16, HIPK4 (Homo sapiens, UniProt Q8NE63); test: KINOMEscan; assay type: binding; conditions: read-out: %Ctrl @ 10000nM
T16 construct: purchased DiscoverX KINOMEscan
T16 sequence (Q8NE63 whole entry): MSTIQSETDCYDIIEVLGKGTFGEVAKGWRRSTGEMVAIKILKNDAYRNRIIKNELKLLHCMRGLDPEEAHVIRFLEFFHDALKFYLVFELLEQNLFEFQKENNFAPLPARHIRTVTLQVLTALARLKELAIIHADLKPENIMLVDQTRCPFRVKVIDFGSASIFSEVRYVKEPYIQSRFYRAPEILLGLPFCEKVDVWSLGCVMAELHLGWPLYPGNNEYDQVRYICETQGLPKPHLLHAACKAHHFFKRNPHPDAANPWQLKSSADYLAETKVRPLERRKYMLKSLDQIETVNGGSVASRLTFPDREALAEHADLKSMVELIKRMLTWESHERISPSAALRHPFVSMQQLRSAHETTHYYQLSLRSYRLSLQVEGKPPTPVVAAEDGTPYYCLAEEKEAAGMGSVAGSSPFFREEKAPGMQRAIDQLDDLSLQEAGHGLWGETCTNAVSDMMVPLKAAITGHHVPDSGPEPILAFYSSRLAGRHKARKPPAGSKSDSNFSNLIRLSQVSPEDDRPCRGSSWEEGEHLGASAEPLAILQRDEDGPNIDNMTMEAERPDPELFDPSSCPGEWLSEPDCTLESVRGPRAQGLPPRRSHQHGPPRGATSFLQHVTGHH

IGF1R = target: T17, IGF1R (Homo sapiens, UniProt P08069); test: KINOMEscan; assay type: binding; conditions: read-out: %Ctrl @ 10000nM
T17 construct: purchased DiscoverX KINOMEscan

KIT(V559D,T670I) = target: T18, KIT(V559D,T670I) (Homo sapiens, UniProt P10721, T670I/V559D); test: KINOMEscan; assay type: binding; conditions: read-out: %Ctrl @ 10000nM
T18 construct: purchased DiscoverX KINOMEscan
T18 sequence (P10721 26-976 V559D/T670I): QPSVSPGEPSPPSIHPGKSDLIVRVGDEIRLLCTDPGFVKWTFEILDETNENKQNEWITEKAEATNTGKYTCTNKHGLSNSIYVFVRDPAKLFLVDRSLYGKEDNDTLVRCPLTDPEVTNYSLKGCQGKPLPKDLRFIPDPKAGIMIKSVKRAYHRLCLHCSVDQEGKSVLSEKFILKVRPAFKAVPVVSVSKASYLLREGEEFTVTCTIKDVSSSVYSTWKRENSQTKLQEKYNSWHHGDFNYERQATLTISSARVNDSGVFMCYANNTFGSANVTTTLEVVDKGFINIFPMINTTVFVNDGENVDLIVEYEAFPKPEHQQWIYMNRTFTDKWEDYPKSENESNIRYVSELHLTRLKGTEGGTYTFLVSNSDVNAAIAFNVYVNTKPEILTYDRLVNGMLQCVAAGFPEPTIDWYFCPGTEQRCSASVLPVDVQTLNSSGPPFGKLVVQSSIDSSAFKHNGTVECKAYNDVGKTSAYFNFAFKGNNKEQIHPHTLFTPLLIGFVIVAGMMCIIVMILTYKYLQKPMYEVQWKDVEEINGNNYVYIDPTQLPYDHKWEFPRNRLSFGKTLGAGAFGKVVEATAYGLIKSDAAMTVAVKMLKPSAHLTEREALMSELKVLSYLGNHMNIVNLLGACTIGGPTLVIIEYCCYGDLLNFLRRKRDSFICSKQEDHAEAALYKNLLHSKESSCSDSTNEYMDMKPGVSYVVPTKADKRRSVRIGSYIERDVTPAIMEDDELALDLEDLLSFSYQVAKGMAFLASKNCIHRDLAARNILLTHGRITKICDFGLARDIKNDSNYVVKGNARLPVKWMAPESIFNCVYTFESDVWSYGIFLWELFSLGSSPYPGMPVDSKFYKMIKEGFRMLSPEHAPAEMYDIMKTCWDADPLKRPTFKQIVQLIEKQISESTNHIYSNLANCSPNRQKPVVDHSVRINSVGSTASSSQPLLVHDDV

MKNK2 = target: T19, MKNK2 (Homo sapiens, UniProt Q9HBH9); test: KINOMEscan; assay type: binding; conditions: read-out: %Ctrl @ 10000nM
T19 construct: purchased DiscoverX KINOMEscan
T19 sequence (Q9HBH9 whole entry): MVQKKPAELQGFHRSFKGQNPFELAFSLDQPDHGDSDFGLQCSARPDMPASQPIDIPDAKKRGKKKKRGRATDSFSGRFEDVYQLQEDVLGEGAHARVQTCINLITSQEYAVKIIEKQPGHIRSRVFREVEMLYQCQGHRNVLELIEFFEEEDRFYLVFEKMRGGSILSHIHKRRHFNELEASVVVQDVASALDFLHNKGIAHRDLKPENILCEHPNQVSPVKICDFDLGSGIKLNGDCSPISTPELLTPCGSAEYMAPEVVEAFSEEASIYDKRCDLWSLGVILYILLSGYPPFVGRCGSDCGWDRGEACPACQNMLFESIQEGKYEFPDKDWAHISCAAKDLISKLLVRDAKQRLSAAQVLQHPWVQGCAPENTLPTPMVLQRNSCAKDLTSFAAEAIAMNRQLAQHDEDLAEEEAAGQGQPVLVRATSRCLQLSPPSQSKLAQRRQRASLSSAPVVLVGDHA

MST1R = target: T20, MST1R (Homo sapiens, UniProt Q04912); test: KINOMEscan; assay type: binding; conditions: read-out: %Ctrl @ 10000nM
T20 construct: purchased DiscoverX KINOMEscan

MYLK = target: T21, MYLK (Homo sapiens, UniProt Q15746); test: KINOMEscan; assay type: binding; conditions: read-out: %Ctrl @ 10000nM
T21 construct: purchased DiscoverX KINOMEscan

OSR1 = target: T22, OSR1 (Homo sapiens, UniProt O95747); test: KINOMEscan; assay type: binding; conditions: read-out: %Ctrl @ 10000nM
T22 construct: purchased DiscoverX KINOMEscan
T22 sequence (O95747 whole entry): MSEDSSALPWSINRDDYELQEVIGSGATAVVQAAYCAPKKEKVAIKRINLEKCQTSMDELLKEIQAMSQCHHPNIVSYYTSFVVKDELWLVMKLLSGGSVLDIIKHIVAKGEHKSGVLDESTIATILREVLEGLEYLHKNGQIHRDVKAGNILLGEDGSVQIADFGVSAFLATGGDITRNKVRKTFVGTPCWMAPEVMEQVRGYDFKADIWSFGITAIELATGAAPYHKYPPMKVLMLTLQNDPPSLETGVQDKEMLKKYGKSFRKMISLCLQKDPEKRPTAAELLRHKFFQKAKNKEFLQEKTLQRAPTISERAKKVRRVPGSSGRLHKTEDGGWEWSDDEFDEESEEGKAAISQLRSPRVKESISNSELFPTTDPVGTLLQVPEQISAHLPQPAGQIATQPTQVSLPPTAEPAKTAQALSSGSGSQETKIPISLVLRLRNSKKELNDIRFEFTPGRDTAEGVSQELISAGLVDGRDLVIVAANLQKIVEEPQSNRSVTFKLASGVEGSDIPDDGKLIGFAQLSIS

PIK4CB = target: T23, PIK4CB (Homo sapiens, UniProt Q9UBF8); test: KINOMEscan; assay type: binding; conditions: read-out: %Ctrl @ 10000nM
T23 construct: purchased DiscoverX KINOMEscan

PIP5K1A = target: T24, PIP5K1A (Homo sapiens, UniProt Q99755); test: KINOMEscan; assay type: binding; conditions: read-out: %Ctrl @ 10000nM
T24 construct: purchased DiscoverX KINOMEscan

PIP5K1C = target: T25, PIP5K1C (Homo sapiens, UniProt O60331); test: KINOMEscan; assay type: binding; conditions: read-out: %Ctrl @ 10000nM
T25 construct: purchased DiscoverX KINOMEscan

PRKG1 = target: T26, PRKG1 (Homo sapiens, UniProt Q13976); test: KINOMEscan; assay type: binding; conditions: read-out: %Ctrl @ 10000nM
T26 construct: purchased DiscoverX KINOMEscan

[2] = target: T27, RPS6KA5(Kin.Dom.1-N-terminal) (Homo sapiens, UniProt O75582); test: KINOMEscan; assay type: binding; conditions: read-out: %Ctrl @ 10000nM
T27 construct: RPS6KA5(Kin.Dom.1-N-terminal); purchased DiscoverX KINOMEscan

SGK = target: T28, SGK (Homo sapiens, UniProt O00141); test: KINOMEscan; assay type: binding; conditions: read-out: %Ctrl @ 10000nM
T28 construct: purchased DiscoverX KINOMEscan
T28 sequence (O00141 whole entry): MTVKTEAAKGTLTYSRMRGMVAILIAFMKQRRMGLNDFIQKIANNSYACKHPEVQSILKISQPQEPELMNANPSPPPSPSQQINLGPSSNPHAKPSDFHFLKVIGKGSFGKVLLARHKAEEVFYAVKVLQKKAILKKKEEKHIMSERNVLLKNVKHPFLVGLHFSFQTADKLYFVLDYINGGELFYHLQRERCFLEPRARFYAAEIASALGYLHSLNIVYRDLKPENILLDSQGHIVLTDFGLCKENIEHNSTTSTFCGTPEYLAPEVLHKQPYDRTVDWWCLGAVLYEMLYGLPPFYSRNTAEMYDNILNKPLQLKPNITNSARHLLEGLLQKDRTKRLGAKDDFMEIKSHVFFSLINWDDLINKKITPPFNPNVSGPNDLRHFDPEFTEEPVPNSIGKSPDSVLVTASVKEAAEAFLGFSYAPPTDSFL

TAOK2 = target: T29, TAOK2 (Homo sapiens, UniProt Q9UL54); test: KINOMEscan; assay type: binding; conditions: read-out: %Ctrl @ 10000nM
T29 construct: purchased DiscoverX KINOMEscan

TIE2 = target: T30, TIE2 (Homo sapiens, UniProt Q02763); test: KINOMEscan; assay type: binding; conditions: read-out: %Ctrl @ 10000nM
T30 construct: purchased DiscoverX KINOMEscan

TSSK1B = target: T31, TSSK1B (Homo sapiens, UniProt Q9BXA7); test: KINOMEscan; assay type: binding; conditions: read-out: %Ctrl @ 10000nM
T31 construct: DNA label for qPCR (T7 phage fusion or DNA tag); purchased DiscoverX scanMAX; host or cells: E. coli BL21-derived (T7 phage) or HEK-293

WNK4 = target: T32, WNK4 (Homo sapiens, UniProt Q96J92); test: KINOMEscan; assay type: binding; conditions: read-out: %Ctrl @ 10000nM
T32 construct: DNA label for qPCR (T7 phage fusion or DNA tag); purchased DiscoverX scanMAX; host or cells: E. coli BL21-derived (T7 phage) or HEK-293

C3A cells = test: Cell growth and macromolecular synthesis; assay type: cell-based, human; conditions: 10 μM
Description: For quantifying protein, DNA and lipid synthesis, C3A cells were first seeded at 2 × 10^6 in 60 mm-dishes and grown overnight in maintenance medium. Cells were washed once with phosphate buffered saline (PBS) and 2 ml of labeling medium plus radiochemical was added to start the 24 h incubation. […]. […] The labeling medium contained 0.1% dimethylsulfoxide (DMSO; control) or 10 μM compound in 0.1% DMSO. Cells were harvested, washed once with PBS and harvested either by trypsinization and vacuum filtration through 0.45 micron discs (Millipore, HAWP02500) for protein and DNA determinations, or by scraping and extraction in 100 μl H2O + 240 μl methanol/acetic acid 98:2 + 100 μl CHCl3 for lipid determination. Filters were washed three times with PBS, air dried and counted with a Liquid Scintillation Analyzer. Radioactivity was normalized to cell numbers and viability was >95%. Cellular lipid emulsions were separated by centrifugation and the lower phases were quantified by liquid scintillation counting and normalized to cell numbers.
(b) Pathway labeling of C3A cells treated with either DMSO or DMSO […]
[…]. labeled amino acid mixture, DNA synthesis was determined by measuring the incorporation of [3H]thymidine, and lipid synthesis was determined by labeling with [U-14C]glucose and measuring the incorporation of label into the lipid fraction as described in Methods. […]

HEK293T cells = test: Intracellular CoA levels in transfected HEK293T cells; assay type: cell-based, human; conditions: 10 μM, 24 h
Description: Chloroform 1.5 ml, 1.2 ml water and 30 pmol of [^13C2]acetyl-CoA (Sigma) was added, and centrifuged at 2000×g for 10 min. The top layer was loaded on a 2-(2-pyridyl) ethyl solid phase extraction column which was equilibrated with 1 ml 50% methanol/2% acetic acid. The column was washed twice with 1 ml 50% methanol/2% acetic acid and 1 ml water. […] Samples were resuspended in 90% methanol containing 15 mM ammonium hydroxide.

CC(C)c1ccc(CC(=O)N2CCN(c3ccc(C#N)nn3)CC2)cc1 [PZ-2891, 6-(4-(2-(4-isopropylphenyl)acetyl)piperazin-1-yl)pyridazine-3-carbonitrile]
remaining binding at 10 µM [1]: 73% | remaining binding at 10 µM (ACVR1): 88% | remaining binding at 10 µM (ACVRL1): 100% | remaining binding at 10 µM (AMPK-alpha1): 92% | remaining binding at 10 µM (BMPR1A): 100% | remaining binding at 10 µM (BTK): 94% | remaining binding at 10 µM (CDC2L2): 87% | remaining binding at 10 µM (CDK11): 78% | remaining binding at 10 µM (CDK9): 98% | remaining binding at 10 µM (CSNK1G1): 92% | remaining binding at 10 µM (DAPK3): 100% | remaining binding at 10 µM (EIF2AK1): 95% | remaining binding at 10 µM (FLT3(N841I)): 86% | remaining binding at 10 µM (GRK4): 52% | remaining binding at 10 µM (HIPK2): 100% | remaining binding at 10 µM (HIPK4): 94% | remaining binding at 10 µM (IGF1R): 91% | remaining binding at 10 µM (KIT(V559D,T670I)): 94% | remaining binding at 10 µM (MKNK2): 79% | remaining binding at 10 µM (MST1R): 73% | remaining binding at 10 µM (MYLK): 75% | remaining binding at 10 µM (OSR1): 87% | remaining binding at 10 µM (PIK4CB): 84% | remaining binding at 10 µM (PIP5K1A): 86% | remaining binding at 10 µM (PIP5K1C): 100% | remaining binding at 10 µM (PRKG1): 99% | remaining binding at 10 µM [2]: 93% | remaining binding at 10 µM (SGK): 61% | remaining binding at 10 µM (TAOK2): 99% | remaining binding at 10 µM (TIE2): 97% | remaining binding at 10 µM (TSSK1B): 99% | remaining binding at 10 µM (WNK4): 69% | cell viability (cell growth, synthesis of DNA, protein and lipid) (C3A cells): no differences between control and PZ-2891; also recorded: did not impact cell viability | intracellular CoA, control (empty vector) HEK293T cells (HEK293T cells): significantly increased the levels of intracellular CoA | solubility (Solubility at pH 7.4): 23 µM (≈ 8.04 µg/mL)
